Data taken from patent US5770434A, “Soluble peptides having constrained, secondary conformation in solution and method of making same” (IXSYS Incorporated, priority 1995, dated 1998).

Experiments:
[1] = test system: ligand-binding protein (in this example, an antibody); assay: Panning of phage-displayed peptide library against a ligand-binding protein (antibody), protein A-coated dishes; conditions: phage-expressed peptide, compared with the general phage population
[2] = Solubility of the secreted expressed peptide
Source text: The oligonucleotide encoding this peptide is cloned into a vector that allowed secretion of the expressed peptide. The peptide […]

| Sequence | ligand binding affinity [1] | soluble at a concentration of [2] [mg/mL] |
| --- | --- | --- |
| CDDQYYTDHEQGKCEVALYYTG [SEQ. ID. NO.: 63, peptide selected from phage library] | high affinity | – |
| TQSKCSTDHWLGYIEYFIMCTY [SEQ. ID. NO.: 62] | highest affinity | ≥ 4 |
